Assay results as given in patent US6461997B1, “Triazole sulfones having herbicidal activity” (Monsanto Technology LLC, priority 1999, dated 2002).

Experiments:
ABUTH (velvetleaf) [1] = assay: Pre-emergence herbicidal activity, warm season; type: in vivo, Abutilon theophrasti
Summary of the method: (§1)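 Seeds sown in sterilised fertilised topsoil received surface-applied compound in 50:50 acetone/water, typically at 300, 100, 30 and 10 g/ha, then greenhouse-grown at 30/21° C (warm-season species) or 18/13° C (cool-season species). Percent inhibition versus untreated plants was scored at about 14 days, giving GR80; an asterisk marks activity short of 80% at the top rate.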

AMARE (redroot pigweed) = assay: Pre-emergence herbicidal activity, warm season; type: in vivo, Amaranthus retroflexus
Summary of the method: as §1

DATST (jimsonweed) = assay: Pre-emergence herbicidal activity, warm season; type: in vivo, Datura stramonium
Summary of the method: as §1

KCHSC (kochia) [2] = assay: Pre-emergence herbicidal activity, cool season; type: in vivo, Kochia scoparia; details: lowest tested rate with 80% or greater inhibition; rates 300, 100, 30, 10 g/ha; about 14 days
Summary of the method: as §1

LOLMG (annual ryegrass) = assay: Pre-emergence herbicidal activity, cool season; type: in vivo, Lolium multiflorum; details: GR80 = lowest tested rate (300, 100, 30, 10 g/ha) with 80% or greater inhibition; approx. 14 days after treating; 18/13° C.
Summary of the method: as §1

[3] = system: AGSST (creeping bentgrass); assay: Pre-emergence herbicidal activity, cool season; type: in vivo, Agrostis stolonifera; details: GR80 = lowest tested rate (300, 100, 30, 10 g/ha) with 80% or greater inhibition; approx. 14 days after treating; 18/13° C.
Summary of the method: as §1

ABUTH (velvetleaf) [4] = assay: Pre-plant incorporated (PPI) herbicidal activity, warm season; type: in vivo, Abutilon theophrasti
Summary of the method: (§2)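 PPI simulation: compound in organic solvent sprayed onto weighed cover soil, mixed thoroughly, spread over seeds. Controls: untreated cover soil. 0.64 cm overhead irrigation, then mist/subirrigation. Day/night 30/21° C (warm) or 18/13° C (cool). Read-out ~14 d, % inhibition vs untreated.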

[5] = system: CIRAR (canada thistle (seedling)); assay: as above; type: in vivo, Cirsium arvense; details: GR80 = lowest tested rate with 80% or greater inhibition, approx. 14 days after treating, 30/21° C.
Summary of the method: as §2

[6] = system: GALAP (catchweed bedstraw); assay: Pre-plant incorporated (PPI) herbicidal activity, cool season; type: in vivo, Galium aparine
Summary of the method: as §2

KCHSC (kochia) [7] = assay: as above; type: in vivo, Kochia scoparia; details: pre-plant incorporated; lowest tested rate with 80% or greater inhibition; about 14 days
Summary of the method: as §2

[8] = system: VERPE (creeping speedwell); assay: as above; type: in vivo, Veronica persicaria; details: pre-plant incorporated; lowest tested rate with 80% or greater inhibition; about 14 days
Summary of the method: as §2

[9] = system: LAMPU (purple deadnettle); assay: as above; type: in vivo, Lamium purpureum
Summary of the method: as §2

SETVI (green foxtail) = assay: as above; type: in vivo, Setaria viridis
Summary of the method: as §2

[10] = GR80 = lowest tested rate (300, 100, 30, 10 g/ha) with 80% or greater inhibition, approx. 14 days after treating, 30/21° C.
[11] = pre-plant incorporated, lowest tested rate with 80% or greater inhibition, about 14 days

CCN(CC)C(=O)n1cnc(S(=O)(=O)C(F)(F)Br)n1 [Example 1, 3-(bromodifluoromethylsulfonyl)-1-(N,N-diethylcarbamoyl)-1,2,4-triazole]
inhibition at 10 g/ha (ABUTH (velvetleaf) [1]; Abutilon theophrasti, pre-emergence application, 10 g/ha, read-out: Percent inhibition, weed ABUTH): 0%
inhibition at 30 g/ha (ABUTH (velvetleaf) [1]; Abutilon theophrasti, pre-emergence application, 30 g/ha, read-out: Percent inhibition, weed ABUTH): 0%
inhibition at 300 g/ha (ABUTH (velvetleaf) [1]; Abutilon theophrasti, pre-emergence application, 300 g/ha, read-out: Percent inhibition, weed ABUTH): 0%
inhibition at 900 g/ha (ABUTH (velvetleaf) [1]; Abutilon theophrasti, pre-emergence application, 900 g/ha, read-out: Percent inhibition, weed ABUTH): 0%
Pre-emergence activity (GR80) ABUTH (ABUTH (velvetleaf) [1]; [10]): 300 g/ha
inhibition at 10 g/ha (AMARE (redroot pigweed); Amaranthus retroflexus, pre-emergence application, 10 g/ha, read-out: Percent inhibition, weed AMARE): 0%
inhibition at 30 g/ha (AMARE (redroot pigweed); Amaranthus retroflexus, pre-emergence application, 30 g/ha, read-out: Percent inhibition, weed AMARE): 0%
inhibition at 100 g/ha (AMARE (redroot pigweed); Amaranthus retroflexus, pre-emergence application, 100 g/ha, read-out: Percent inhibition, weed AMARE): 60%
inhibition at 300 g/ha (AMARE (redroot pigweed); Amaranthus retroflexus, pre-emergence application, 300 g/ha, read-out: Percent inhibition, weed AMARE): 50%
inhibition at 900 g/ha (AMARE (redroot pigweed); Amaranthus retroflexus, pre-emergence application, 900 g/ha, read-out: Percent inhibition, weed AMARE): 90%
Pre-emergence activity (GR80) AMARE (AMARE (redroot pigweed); [10]): 30 g/ha
inhibition at 10 g/ha (DATST (jimsonweed); Datura stramonium, pre-emergence application, 10 g/ha, read-out: Percent inhibition, weed DATST): 0%
inhibition at 30 g/ha (DATST (jimsonweed); Datura stramonium, pre-emergence application, 30 g/ha, read-out: Percent inhibition, weed DATST): 0%
inhibition at 100 g/ha (DATST (jimsonweed); Datura stramonium, pre-emergence application, 100 g/ha, read-out: Percent inhibition, weed DATST): 0%
inhibition at 300 g/ha (DATST (jimsonweed); Datura stramonium, pre-emergence application, 300 g/ha, read-out: Percent inhibition, weed DATST): 0%
inhibition at 900 g/ha (DATST (jimsonweed); Datura stramonium, pre-emergence application, 900 g/ha, read-out: Percent inhibition, weed DATST): 20%
Pre-emergence activity (GR80) DATST (DATST (jimsonweed); [10]): 300 g/ha
Pre-emergence activity GR80, KCHSC (KCHSC (kochia) [2]): 300 g/ha
Pre-emergence activity (GR80) LOLMG (LOLMG (annual ryegrass)): 100 g/ha
Pre-emergence activity (GR80) AGSST [3]: 30 g/ha
inhibition at 10 g/ha (ABUTH (velvetleaf) [4]; Abutilon theophrasti, PPI application, 10 g/ha, read-out: Percent inhibition ABUTH): 0%
inhibition at 30 g/ha (ABUTH (velvetleaf) [4]; Abutilon theophrasti, PPI application, 30 g/ha, read-out: Percent inhibition ABUTH): 0%
inhibition at 100 g/ha (ABUTH (velvetleaf) [4]; Abutilon theophrasti, PPI application, 100 g/ha, read-out: Percent inhibition ABUTH): 0%
inhibition at 300 g/ha (ABUTH (velvetleaf) [4]; Abutilon theophrasti, PPI application, 300 g/ha, read-out: Percent inhibition ABUTH): 20%
inhibition at 900 g/ha (ABUTH (velvetleaf) [4]; Abutilon theophrasti, PPI application, 900 g/ha, read-out: Percent inhibition ABUTH): 80%
PPI activity (GR80) ABUTH (ABUTH (velvetleaf) [4]; pre-plant incorporated, GR80 = lowest tested rate with 80% or greater inhibition, approx. 14 days after treating, 30/21° C.): 100 g/ha
PPI activity (GR80) CIRAR [5]: 100 g/ha
inhibition at 30 g/ha ([6]; Galium aparine, weed, PPI application, 30 g/ha, read-out: Percent inhibition GALAP): 70%
inhibition at 100 g/ha ([6]; Galium aparine, weed, PPI application, 100 g/ha, read-out: Percent inhibition GALAP): 100%
inhibition at 300 g/ha ([6]; Galium aparine, weed, PPI application, 300 g/ha, read-out: Percent inhibition GALAP): 100%
inhibition at 900 g/ha ([6]; Galium aparine, weed, PPI application, 900 g/ha, read-out: Percent inhibition GALAP): 100%
PPI activity GR80, GALAP [6, 11]: 100 g/ha
PPI activity GR80, KCHSC (KCHSC (kochia) [7]): 100 g/ha
PPI activity GR80, VERPE [8]: 30 g/ha
inhibition at 30 g/ha ([9]; Lamium purpureum, weed, PPI application, 30 g/ha, read-out: Percent inhibition LAMPU): 80%
inhibition at 100 g/ha ([9]; Lamium purpureum, weed, PPI application, 100 g/ha, read-out: Percent inhibition LAMPU): 70%
inhibition at 300 g/ha ([9]; Lamium purpureum, weed, PPI application, 300 g/ha, read-out: Percent inhibition LAMPU): 95%
inhibition at 900 g/ha ([9]; Lamium purpureum, weed, PPI application, 900 g/ha, read-out: Percent inhibition LAMPU): 100%
PPI activity GR80, LAMPU [9, 11]: 100 g/ha
inhibition at 30 g/ha (SETVI (green foxtail); Setaria viridis, weed, PPI application, 30 g/ha, read-out: Percent inhibition SETVI): 80%
inhibition at 100 g/ha (SETVI (green foxtail); Setaria viridis, weed, PPI application, 100 g/ha, read-out: Percent inhibition SETVI): 99%
inhibition at 300 g/ha (SETVI (green foxtail); Setaria viridis, weed, PPI application, 300 g/ha, read-out: Percent inhibition SETVI): 100%
inhibition at 900 g/ha (SETVI (green foxtail); Setaria viridis, weed, PPI application, 900 g/ha, read-out: Percent inhibition SETVI): 100%
PPI activity GR80, SETVI (SETVI (green foxtail); [11]): 100 g/ha
